Tested on: Unknown protein yeast genes
Experiment: DNA chip mRNA expression in yeast, unknown protein yeast genes (Table 1)
Type: cell-based, Saccharomyces cerevisiae S288C
Procedure, shortened: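 Expression change after 2 h toxicant exposure (growth-inhibiting, sub-lethal) of log-phase S. cerevisiae S288C at 25° C. Oligo-dT-purified mRNA was labeled with Cy3-dUTP or Cy5-dUTP and hybridized >12 h at 65° C. to a genome-wide chip; ratio of scanned fluorescence to control.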

CCCCCCCCCCCCOS(=O)(=O)[O-].[Na+] [(18), sodium lauryl sulfate]
The level of expressed mRNA in the presence of chemical substance/The level of expressed mRNA in the absence of chemical substance (yeast gene YAL053W, incubated two hours with chemical substance): 1.6
The level of expressed mRNA in the presence of chemical substance/The level of expressed mRNA in the absence of chemical substance (yeast gene YBL048W): 1.0
The level of expressed mRNA in the presence of chemical substance/The level of expressed mRNA in the absence of chemical substance (yeast gene YBL107C): 1.4
The level of expressed mRNA in the presence of chemical substance/The level of expressed mRNA in the absence of chemical substance (yeast gene YDL072C, incubated two hours with chemical substance): 2.8
The level of expressed mRNA in the presence of chemical substance/The level of expressed mRNA in the absence of chemical substance (yeast gene YDL110C): 4.4
The level of expressed mRNA in the presence of chemical substance/The level of expressed mRNA in the absence of chemical substance (yeast gene YDL204W, incubated two hours with chemical substance): 2.7
The level of expressed mRNA in the presence of chemical substance/The level of expressed mRNA in the absence of chemical substance (yeast gene YDL222C, incubated two hours with chemical substance): 1.3
The level of expressed mRNA in the presence of chemical substance/The level of expressed mRNA in the absence of chemical substance (yeast gene YDR330W, incubated two hours with chemical substance): 1.3
The level of expressed mRNA in the presence of chemical substance/The level of expressed mRNA in the absence of chemical substance (yeast gene YDR391C, incubated two hours with chemical substance): 2.4
The level of expressed mRNA in the presence of chemical substance/The level of expressed mRNA in the absence of chemical substance (yeast gene YDR411C, incubated two hours with chemical substance): 1.3
The level of expressed mRNA in the presence of chemical substance/The level of expressed mRNA in the absence of chemical substance (yeast gene YDR511W, incubated two hours with chemical substance): 1.5
The level of expressed mRNA in the presence of chemical substance/The level of expressed mRNA in the absence of chemical substance (yeast gene YDR533C): 2.7
The level of expressed mRNA in the presence of chemical substance/The level of expressed mRNA in the absence of chemical substance (yeast gene YDR545W, incubated two hours with chemical substance): 0.9
The level of expressed mRNA in the presence of chemical substance/The level of expressed mRNA in the absence of chemical substance (yeast gene YEL001C, incubated two hours with chemical substance): 1.3
The level of expressed mRNA in the presence of chemical substance/The level of expressed mRNA in the absence of chemical substance (yeast gene YER004W, incubated two hours with chemical substance): 1.2
The level of expressed mRNA in the presence of chemical substance/The level of expressed mRNA in the absence of chemical substance (yeast gene YER035W, incubated two hours with chemical substance): 2.1
The level of expressed mRNA in the presence of chemical substance/The level of expressed mRNA in the absence of chemical substance (yeast gene YER079W, incubated two hours with chemical substance): 1.6
The level of expressed mRNA in the presence of chemical substance/The level of expressed mRNA in the absence of chemical substance (yeast gene YER106W, incubated two hours with chemical substance): 0.8
The level of expressed mRNA in the presence of chemical substance/The level of expressed mRNA in the absence of chemical substance (yeast gene YER158C, incubated two hours with chemical substance): 1.2
The level of expressed mRNA in the presence of chemical substance/The level of expressed mRNA in the absence of chemical substance (yeast gene YER163C, incubated two hours with chemical substance): 1.2
The level of expressed mRNA in the presence of chemical substance/The level of expressed mRNA in the absence of chemical substance (yeast gene YER175C, incubated two hours with chemical substance): 1.2
The level of expressed mRNA in the presence of chemical substance/The level of expressed mRNA in the absence of chemical substance (yeast gene YFL006W, incubated two hours with chemical substance): 0.8
The level of expressed mRNA in the presence of chemical substance/The level of expressed mRNA in the absence of chemical substance (yeast gene YFL010C, incubated two hours with chemical substance): 1.6
The level of expressed mRNA in the presence of chemical substance/The level of expressed mRNA in the absence of chemical substance (yeast gene YFL024C): 0.8
The level of expressed mRNA in the presence of chemical substance/The level of expressed mRNA in the absence of chemical substance (yeast gene YFL032W, incubated two hours with chemical substance): 0.8
The level of expressed mRNA in the presence of chemical substance/The level of expressed mRNA in the absence of chemical substance (yeast gene YGL037C, incubated two hours with chemical substance): 2.6
The level of expressed mRNA in the presence of chemical substance/The level of expressed mRNA in the absence of chemical substance (yeast gene YGL047W, incubated two hours with chemical substance): 1.2
The level of expressed mRNA in the presence of chemical substance/The level of expressed mRNA in the absence of chemical substance (yeast gene YGL053W, incubated two hours with chemical substance): 3.7
The level of expressed mRNA in the presence of chemical substance/The level of expressed mRNA in the absence of chemical substance (yeast gene YGL121C): 3.5
The level of expressed mRNA in the presence of chemical substance/The level of expressed mRNA in the absence of chemical substance (yeast gene YGL199C, incubated two hours with chemical substance): 1.0
The level of expressed mRNA in the presence of chemical substance/The level of expressed mRNA in the absence of chemical substance (yeast gene YGR101W, incubated two hours with chemical substance): 1.1
The level of expressed mRNA in the presence of chemical substance/The level of expressed mRNA in the absence of chemical substance (yeast gene YGR110W): 2.1
The level of expressed mRNA in the presence of chemical substance/The level of expressed mRNA in the absence of chemical substance (yeast gene YGR130C, incubated two hours with chemical substance): 1.6
The level of expressed mRNA in the presence of chemical substance/The level of expressed mRNA in the absence of chemical substance (yeast gene YGR154C, incubated two hours with chemical substance): 1.2
The level of expressed mRNA in the presence of chemical substance/The level of expressed mRNA in the absence of chemical substance (yeast gene YGR221C, incubated two hours with chemical substance): 1.3
The level of expressed mRNA in the presence of chemical substance/The level of expressed mRNA in the absence of chemical substance (yeast gene YGR243W): 4.4
The level of expressed mRNA in the presence of chemical substance/The level of expressed mRNA in the absence of chemical substance (yeast gene YHR054C): 3.4
The level of expressed mRNA in the presence of chemical substance/The level of expressed mRNA in the absence of chemical substance (yeast gene YHR138C, incubated two hours with chemical substance): 7.1
The level of expressed mRNA in the presence of chemical substance/The level of expressed mRNA in the absence of chemical substance (yeast gene YHR199C, incubated two hours with chemical substance): 0.9
The level of expressed mRNA in the presence of chemical substance/The level of expressed mRNA in the absence of chemical substance (yeast gene YHR209W): 2.6
The level of expressed mRNA in the presence of chemical substance/The level of expressed mRNA in the absence of chemical substance (yeast gene YIL023C, incubated two hours with chemical substance): 1.0
The level of expressed mRNA in the presence of chemical substance/The level of expressed mRNA in the absence of chemical substance (yeast gene YIL041W, incubated two hours with chemical substance): 1.1
The level of expressed mRNA in the presence of chemical substance/The level of expressed mRNA in the absence of chemical substance (yeast gene YIL087C, incubated two hours with chemical substance): 1.6
The level of expressed mRNA in the presence of chemical substance/The level of expressed mRNA in the absence of chemical substance (yeast gene YJL057C, incubated two hours with chemical substance): 1.5
The level of expressed mRNA in the presence of chemical substance/The level of expressed mRNA in the absence of chemical substance (yeast gene YJL066C, incubated two hours with chemical substance): 1.5
The level of expressed mRNA in the presence of chemical substance/The level of expressed mRNA in the absence of chemical substance (yeast gene YJL082W, incubated two hours with chemical substance): 0.3
The level of expressed mRNA in the presence of chemical substance/The level of expressed mRNA in the absence of chemical substance (yeast gene YJL151C, incubated two hours with chemical substance): 2.4
The level of expressed mRNA in the presence of chemical substance/The level of expressed mRNA in the absence of chemical substance (yeast gene YJL152W, incubated two hours with chemical substance): 1.7
The level of expressed mRNA in the presence of chemical substance/The level of expressed mRNA in the absence of chemical substance (yeast gene YJL161W, incubated two hours with chemical substance): 2.1
The level of expressed mRNA in the presence of chemical substance/The level of expressed mRNA in the absence of chemical substance (yeast gene YJL171C, incubated two hours with chemical substance): 2.9
The level of expressed mRNA in the presence of chemical substance/The level of expressed mRNA in the absence of chemical substance (yeast gene YJR008W, incubated two hours with chemical substance): 2.7
The level of expressed mRNA in the presence of chemical substance/The level of expressed mRNA in the absence of chemical substance (yeast gene YJR054W, incubated two hours with chemical substance): 0.9
The level of expressed mRNA in the presence of chemical substance/The level of expressed mRNA in the absence of chemical substance (yeast gene YKL071W): 0.9
The level of expressed mRNA in the presence of chemical substance/The level of expressed mRNA in the absence of chemical substance (yeast gene YKL086W, incubated two hours with chemical substance): 1.0
